Data on eight substances can be found in patent US7531505B2, “Compositions and methods for promoting attachment of cells of endothelial cell lineage to medical devices” (Affinergy, Inc., priority 2006, dated 2009).

Like-named read-outs stand apart in the source and are kept apart here.

A short description of data set [1]: ELISA of relative binding strength of biotin-tagged peptides to stainless steel stents. As for the experimental part:
As a specific illustrative example, nonspecific binding sites in wells containing stainless steel stent material in polystyrene microtiter plates were blocked with a buffer containing 1% bovine serum albumin for 2 hours at room temperature. The wells and stainless steel stent material were then washed three times with PBS-T. The plate was incubated for 1 hour at room temperature with shaking at 50 rpm. Each of 17 different phage display libraries was diluted in PBS+1% BSA and was added at a concentration of 10^10 pfu/ml in a total volume of 250 μl. After a 1 hour incubation at room temperature with shaking at 50 rpm, 70 μl of bovine serum was added, and then the plates were incubated at 37° C. with shaking for 1 hour. Unbound phage were removed by washing 3 time with 300 μl of PBS-T. After the final wash, phage bound to stents were used to infect E. coli cells. The infected cells were incubated in 96 deep-well plates, containing 1 ml of growth medium (e.g., 2xYT+5 μg/ml tetracycline) per well, at 37° C. overnight with shaking. Amplified phage-containing supernatant from each well was harvested by centrifugation. Second, third, and fourth rounds of selection were performed in a similar manner to that of the first round, using 150 μl of amplified phage supernatant from the previous round as input, and diluted with 150 μl of PBS-T+1% BSA. From the fourth round of selection, 340 individual clonal phage were then isolated and tested by plating out dilutions of phage pools to obtain single plaques. To detect phage that specifically bound to a metal such as stainless steel, conventional ELISAs were performed using an anti-M13 phage antibody conjugated to horseradish-peroxidase, followed by the addition of chromogenic agent ABTS (2,2′-azinobis(3-ethylbenzthiazoline-6-sulfonic acid). Relative binding strengths of the phage were determined by testing serial dilutions of the phage for binding to stainless steel in an ELISA, using an anti-M13 phage antibody conjugated to horseradish-peroxidase, followed by the addition of chromogenic agent ABTS, and measuring the absorbance at 405 nm. In the ELISA for determining relative binding strengths, the phage titrations were done in either buffer alone, or buffer containing 20% whole blood. The DNA sequence encoding peptides that specifically bound a metallic surface was determined.
Therefore, to determine if the binding specificity for stainless steel is primarily due to the amino acids in the C-terminal half of the amino acid sequence, or if the N-terminal region also impacts binding, peptides consisting essentially of amino acid sequences illustrated as SEQ ID NO:3 and SEQ ID NO:4 were synthesized. The peptides, as listed in Table 2 as SEQ ID NOs: 1, 3, and 4 were each synthesized with a biotin tag, and then assayed for relative binding strengths by ELISA using similar methods as that used for determining the relative binding strengths of phage displaying the peptides (as previously described herein). In this assay, serial dilutions (ranging from 0 μM to 10 μM) of each of the peptides were incubated with the stainless steel stents, washed with PBS-T, and relative binding specificity was quantitated by detecting the colorometric signal resulting from the reaction of streptavidin-alkaline phosphatase (the streptavidin portion binding to the biotin-labeled peptides) with chromogenic substrate. The EC50 was determined from the titration curve. […]

Data set [2] relates to human coronary endothelial cells, porcine coronary endothelial cells, and endothelial progenitor cells. As to the kind of experiment: FACS binding of biotin-tagged peptides to cells of endothelial cell lineage in whole blood. The data set is classed as cell-based, human or Porcine. As for the experimental part: Several of the endothelial-binding domains listed in Table 3 with desirable binding specificities (e.g., SEQ ID NOs: 9-18, 23-28, 30-32, and 35) were further characterized for binding to various cell types in whole blood by FACS, by synthesizing the peptides with a C-terminal biotin tag. Cells were harvested from cell culture flasks using trypsin/EDTA. The cells were neutralized with complete (serum-containing) media and allowed to recover at 37° C. for at least 20 minutes. Each cell type was labeled with its corresponding antibody, as set forth in Table 4, below, and incubated for 20 minutes at room temperature.
The antibody-labeled cells were rinsed twice by centrifugation using washing buffer (HBSS+1% BSA+0.1% sodium azide, sterile-filtered). One hundred (100) μL of whole blood was aliquotted into each well of a deep-well polypropylene plate. Peptides were added to each well to achieve the desired peptide concentration. Minimal volumes of cells (typically 10 μL of cells or approximately 50,000 cells) were added to each well. […] The samples were transferred to an analysis plate and analyzed for cell binding using FACS. In the analysis, controls for each cell type (with relevant antibody as per Table 4, but containing no peptide) were used to assess background fluorescence. […]
(In flow cytometry, cells or beads pass a laser one at a time.)

The subject of the next data set is endothelial cells. As to the kind of experiment: Adherence of endothelial cells to coated stainless steel disks (luminescent ATP read-out). The data set is classed as cell-based. The following applies: coating at 10 μM for 1 hour; 25,000 endothelial cells, 10% bovine serum, 15 minutes; controls uncoated, SEQ ID NO:3 or irrelevant peptide. As for the experimental part:
The biofunctional coating composition comprising an amino acid sequence illustrated as SEQ ID NO:47 was then tested for its ability to selectively adhere cells of endothelial cell lineage to a metallic surface of a medical device. In this example, stainless steel disks were used to represent a metallic surface of a medical device. The disks were contacted with a buffered solution containing the biofunctional coating composition at a concentration of 10 μM for 1 hour at room temperature. As controls for non-specific binding, disks were either uncoated, or coated with the surface-binding domain comprising a peptide consisting essentially of an amino acid sequence of SEQ ID NO:3, or an irrelevant peptide (having no known binding specificity for metal or stainless steel or endothelial cells). The disks were washed with PBS, and then 25,000 endothelial cells were added in cell media containing 10% bovine serum, and incubated at room temperature for 15 minutes. The disks were washed in PBS, and the cells were then quantitated using a commercial luminescent cell viability assay system that measures intracellular ATP using a luminescent read-out. The luminescence was detected using a plate reader.

Data set [3] can be described thus: ELISA of relative binding strength in buffers from pH 2 to pH 12. The settings on record: peptide 1 μM, buffers pH 2 to pH 12. Here is the method:
For determining the effect of pH on binding specificity, the assay for determining relative binding strengths (by ELISA) was performed in the presence of different buffers, varying in pH in a range of from pH 2 to pH 12. For example, a buffer containing glycine and water was adjusted to pH2 using HCl; an acetate buffer was adjusted to pH 4.0 (ionic strength of about 0.001 M); a phosphate buffer (NaH2PO4) was adjusted to pH 6.0 (ionic strength of about 0.012M); a phosphate buffer (NaH2PO4) was adjusted to pH 7.0 (ionic strength of about 0.019M); a tris buffer was adjusted to pH 8.0 (ionic strength of about 0.006M); an ethanolamine buffer was adjusted to pH 10.0 (ionic strength of about 0.003M); and a phosphate buffer (NaH2PO4) was adjusted to pH 12.0 (ionic strength of about 0.044M). The final concentration of each peptide in this assay was 1 μM. Tested in this assay were surface-binding domains comprising a peptide consisting essentially of the amino acid sequence illustrated as SEQ ID NO:3, and the multimers thereof (divalent version (SEQ ID NO:7) and tetravalent version (SEQ ID NO:8)).

For data set [4], the system named is cells of endothelial cell lineage. Description: Additional assays characterizing binding specificity of endothelial-binding domains (EC50). The data set is classed as cell-based. The settings on record: read-out: EC50 of endothelial-binding domain. The source says: In some embodiments, a binding domain that binds specifically to a particular surface, material or composition binds at least 10%, 20%, 30%, 40%, 50%, 60%, 70%, 80%, 90%, 100%, 200%, 300%, 400%, 500%, or a higher percentage, than the binding domain binds to an appropriate control such as, for example, a different material or surface, or a protein typically used for such comparisons such as bovine serum albumin. For example, binding specificity can determined by an assay in which quantitated is a signal (e.g., fluorescence, or colorimetric) representing the relative amount of binding between a peptide and target cells, as compared to peptide and non-target cells. […] In a preferred embodiment, the binding domain has binding specificity that is additionally characterized by an EC50 of 10 μM or less, and more preferably less than 1 μM. The EC50 can be determined using any number of methods known in the art, such as by generating a concentration response curve from a binding assay in which the concentration of the peptide is titered with a known amount of material or cells for which the peptide has binding specificity (see, for example, methods described in Examples 2 and 3 herein). In such case, the EC50 represents the concentration of peptide producing 50% of the maximal binding observed for that peptide in the assay. […]

The mark [5] stands for this setting: biotin-tagged peptide, serial dilutions 0 μM to 10 μM, stainless steel stents, read-out: EC50 expressed in nanomoles.

The EC50 is the concentration giving half of the maximal effect. With “SGVVDAGVVAEDGVSGEASRSSHRTNHKKNNPKKKNKTR [SEQ ID NO:1]”, in data set [1] (setting [5]), the concentration giving a half-maximal response (EC50) was < 250 nM.
Consider VVFAASGVAADAGWSVS [SEQ ID NO:32], for which, in data set [2], the “binding preference between endothelial progenitor cells and endothelial cells” value is given as “preference for binding endothelial cells”.
On to “SSFYGEVGYVGASLYAGGASSRG-PEG-SSHRTNHKKNNPKKKNKTRG [SEQ ID NO:47]”, for which the “number of endothelial cells bound to coated stainless steel disks compared with controls” value with endothelial cells is given as “several fold increase”.
As to SSHRTNHKKNNPKKKNKTR [SEQ ID NO:3], the EC50 was < 50 nM in data set [1] (setting [5]) and < 50 nM in data set [1] (peptide subjected to ethylene oxide sterilization (642 mg/L for 2 hours), read-out: EC50 for binding to stainless steel after ethylene oxide sterilization). Also, the “effect of ethylene oxide sterilization on relative binding specificity for stainless steel” value in data set [1] (ethylene oxide 642 mg/L for 2 hours, compared with unsterilized peptide) is reported as “minimal to no effect”. The “optimum pH for binding” value in data set [3] amounted to 7.0 pH.
As for “SEQ ID NO:7 (SSHRTNHKKNNPKKKNKTRGSSHRTNHKKNNPKKKNKTRG)”, the “optimum pH for binding” value in data set [3] is 7.0 pH.
Consider NHTISKNHKKKNKNSNKTR [SEQ ID NO:4], for which the EC50 in data set [1] (setting [5]) was < 250 nM.
As to FYGEVGYVGASLYAGGAS [SEQ ID NO:19], in data set [4], the concentration giving a half-maximal response (EC50) is < 10000 nM.
AGSSSSVSFVAAAGSAV [SEQ ID NO:14]: the “binding preference between endothelial progenitor cells and endothelial cells” value in data set [2] is “prefer binding to endothelial progenitor cells as compared to endothelial cells”.
